Results taken from the NIST ThermoML archive (doi:10.1016/j.jct.2007.04.009).

Test: cn = amount concentration of the nth substance listed, in mol/dm3
Conditions: 101 kPa, Liquid; for speed of sound: Sing-around technique in a fixed-path interferometer; for mass density: Vibrating tube method

Cl [hydrogen chloride] + O
Conditions	mass density, c1 = 0.001 [kg/m3]	mass density, c1 = 0.01 [kg/m3]	speed of sound, c1 = 0.001 [m/s]	speed of sound, c1 = 0.01 [m/s]
283.15 K	999.726	999.891	1447.9	1448.2
293.15 K	998.23	998.393	1482.6	1482.7
298.15 K	997.067	997.231	1496.8	1496.9
303.15 K	995.67	995.834	1509.3	1509.3
308.15 K	994.057	994.318	1520	1520
313.15 K	992.244	992.405	1529.1	1529.1
